Each compound was assayed on FL-SMN mRNA (SMN transcript containing exons 7 and 8) (assay: Live-cell assay to measure changes in FL-SMN mRNA levels (qPCR) after exposure to the compounds). Settings: fibroblasts derived from patients SMA (GM03813); 24 hours incubation.
Type: cell-based, human
How it was run: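 SMA patient fibroblasts (GM03813) in DMEM/10% FBS were treated with compound (0.1% DMSO final) for 24 h. FL-SMN and Δ7 mRNA were measured by RT-qPCR against oligo DNA standard curves and normalised to GAPDH. Values are % of the DMSO control, binned by asterisk from ≥100% to ≥180%.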

SMILES | Percentage of increase (FL-SMN mRNA standardized against GAPDH, DMSO control set as 100%)
Cc1cn2cc(-c3cc(F)c4nc(C5(F)CCN(C)CC5)[nH]c(=O)c4c3)cc(F)c2n1 [Example 97, 8-fluoro-6-(8-fluoro-2-methylimidazo[1,2-a]pyridin-6-yl)-2-(4-fluoro-1-methylpiperidin-4-yl)quinazolin-4(3H)-one] | **** (equal to or higher than 180%)
CCN1CCC(F)(c2nc3c(F)cc(-c4cc(F)c5nc(C)cn5c4)cc3c(=O)[nH]2)CC1 [Example 98, 2-(1-ethyl-4-fluoropiperidin-4-yl)-8-fluoro-6-(8-fluoro-2-methylimidazo[1,2-a]pyridin-6-yl)quinazolin-4(3H)-one] | **** (equal to or higher than 180%)
Cc1cn2cc(-c3cc(F)c4nc(C5(F)CCN(C(C)C)CC5)[nH]c(=O)c4c3)cc(F)c2n1 [Example 99, 8-fluoro-2-(4-fluoro-1-isopropylpiperidin-4-yl)-6-(8-fluoro-2-methylimidazo[1,2-a]pyridin-6-yl)quinazolin-4(3H)-one] | **** (equal to or higher than 180%)
CCN1CCC(F)(c2nc3c(C)cc(-c4cc(F)c5nc(C)cn5c4)nc3c(=O)[nH]2)CC1 [Example 100, 2-(1-ethyl-4-fluoropiperidin-4-yl)-6-(8-fluoro-2-methylimidazo[1,2-a]pyridin-6-yl)-8-methylpyrido[3,2-d]pyrimidin-4(3H)-one] | **** (equal to or higher than 180%)
Cc1cn2cc(-c3cc(C)c4nc(C5(F)CCN(C(C)C)CC5)[nH]c(=O)c4n3)cc(F)c2n1 [Example 101, 2-(4-fluoro-1-isopropylpiperidin-4-yl)-6-(8-fluoro-2-methylimidazo[1,2-a]pyridin-6-yl)-8-methylpyrido[3,2-d]pyrimidin-4(3H)-one] | *** (equal to or higher than 150% but lower than 180%)
Cc1cn2cc(-c3ccc4nc(C5(F)CCN(C6CC6)CC5)[nH]c(=O)c4n3)cc(F)c2n1 [Example 102, 2-(1-cyclopropyl-4-fluoropiperidin-4-yl)-6-(8-fluoro-2-methylimidazo[1,2-a]pyridin-6-yl)pyrido[3,2-d]pyrimidin-4(3H)-one] | ** (equal to or higher than 120% but lower than 150%)
Cc1cn2cc(-c3cc(C)c4nc(C5(F)CCN(C6CC6)CC5)[nH]c(=O)c4c3)cnc2n1 [Example 103, 2-(1-cyclopropyl-4-fluoropiperidin-4-yl)-6-(2-methylimidazo[1,2-a]pyrimidin-6-yl)-8-methylquinazolin-4(3H4)-one] | ** (equal to or higher than 120% but lower than 150%)
Cc1cn2cc(-c3cc4c(=O)[nH]c(C5(F)CCN(C6CC6)CC5)nc4cn3)cc(F)c2n1 [Example 104, 2-(1-cyclopropyl-4-fluoropiperidin-4-yl)-6-(8-fluoro-2-methylimidazo[1,2-a]pyridin-6-yl)pyrido[3,4-d]pyrimidin-4(3H)-one] | *** (equal to or higher than 150% but lower than 180%)
Cc1nc2c(F)cc(-c3ccc4nc(C5CCN(C6CC6)CC5)[nH]c(=O)c4n3)cc2o1 [Example 106, 2-(1-cyclopropylpiperidin-4-yl)-6-(4-fluoro-2-methyl-1,3-benzoxazol-6-yl)pyrido[3,2-d]pyrimidin-4(3H)-one] | ** (equal to or higher than 120% but lower than 150%)
Cc1nc2c(F)cc(-c3cc4c(=O)[nH]c(C5(F)CCN(C6CC6)CC5)nc4cn3)cc2o1 [Example 107, 2-(1-cyclopropyl-4-fluoropiperidin-4-yl)-6-(4-fluoro-2-methyl-1,3-benzoxazol-6-yl)pyrido[3,4-d]pyrimidin-4(3H)-one] | ** (equal to or higher than 120% but lower than 150%)
Cc1cn2cc(-c3cc4c(=O)[nH]c(C5(F)CCN(C)CC5)nc4cn3)cc(F)c2n1 [Example 108, 2-(4-fluoro-1-methylpiperidin-4-yl)-6-(8-fluoro-2-methylimidazo[1,2-a]pyridin-6-yl)pyrido[3,4-d]pyrimidin-4(3H)-one] | ** (equal to or higher than 120% but lower than 150%)
CCN1CCC(F)(c2nc3cnc(-c4cc(F)c5nc(C)cn5c4)cc3c(=O)[nH]2)CC1 [Example 109, 2-(1-ethyl-4-fluoropiperidin-4-yl)-6-(8-fluoro-2-methylimidazo[1,2-a]pyridin-6-yl)pyrido[3,4-d]pyrimidin-4(3H)-one] | *** (equal to or higher than 150% but lower than 180%)
COCCN1CCC(F)(c2nc3ccc(-c4cc(F)c5nc(C)cn5c4)cc3c(=O)[nH]2)CC1 [Example 110, 2-[4-fluoro-1-(2-methoxyethyl)piperidin-4-yl]-6-(8-fluoro-2-methylimidazo[1,2-a]pyridin-6-yl)quinazolin-4(3H)-one] | ** (equal to or higher than 120% but lower than 150%)
Cc1nc2c(F)cc(-c3cc4c(=O)[nH]c(C5(F)CCNCC5)nc4cn3)cc2o1 [Example 111, 6-(4-fluoro-2-methy-1,3-benzoxazol-6-yl)-2-(4-fluoropiperidin-4-yl)pyrido[3,4-d]pyrimidin-4(3H)-one] | **** (equal to or higher than 180%)
COCCN1CCC(c2nc3cnc(-c4cc(F)c5nc(C)cn5c4)cc3c(=O)[nH]2)CC1 [Example 112, 6-(8-fluoro-2-methylimidazo[1,2-a]pyridin-6-yl)-2-[1-(2-methoxyethyl)piperidin-4-yl]pyrido[3,4-d]pyrimidin-4(3H)-one] | **** (equal to or higher than 180%)
COCCN1CCC(c2nc3cnc(-c4cc(F)c5nc(C)oc5c4)cc3c(=O)[nH]2)CC1 [Example 113, 6-(4-fluoro-2-methyl-1,3-benzoxazol-6-yl)-2-[1-(2-methoxyethyl)piperidin-4-yl]pyrido[3,4-d]pyrimidin-4(3H)-one] | **** (equal to or higher than 180%)
Cc1cn2cc(-c3cc4c(=O)[nH]c(C5CCN(C6CC6)CC5)nc4cn3)cc(F)c2n1 [Example 114, 2-(1-cyclopropylpiperidin-4-yl)-6-(8-fluoro-2-methylimidazo[1,2-a]pyridin-6-yl)pyrido[3,4-d]pyrimidin-4(3H)-one] | **** (equal to or higher than 180%)
Cc1nc2c(F)cc(-c3cc4c(=O)[nH]c(C5CCN(C6CC6)CC5)nc4cn3)cc2o1 [Example 115, 2-(1-cyclopropylpiperidin-4-yl)-6-(4-fluoro-2-methyl-1,3-benzoxazol-6-yl)pyrido[3,4-d]pyrimidin-4(3H)-one] | **** (equal to or higher than 180%)
Cc1cn2nc(-c3nc4ccc(N5CCN(C6CC6)CC5)cc4c(=O)[nH]3)cc2cn1 [Example 116, 6-(4-cyclopropylpiperazin-1-yl)-2-(6-methylpyrazolo[1,5-a]pyrazin-2-yl)quinazolin-4(3H)-one] | **** (equal to or higher than 180%)
Cc1cc2nc(-c3nc4ccc(N5CCN(C6CC6)CC5)cc4c(=O)[nH]3)cn2c(C)n1 [Example 117, 6-(4-cyclopropylpiperazin-1-yl)-2-(5,7-dimethylimidazo[1,2-c]pyrimidin-2-yl)quinazolin-4(3H)-one] | **** (equal to or higher than 180%)
Cc1cn2nc(-c3nc4ccc(N5CCN(C6CC6)CC5)cc4c(=O)[nH]3)ccc2n1 [Example 118, 6-(4-cyclopropylpiperazin-1-yl)-2-(2-methylimidazo[1,2-b]pyridazin-6-yl)quinazolin-4(3H)-one] | *** (equal to or higher than 150% but lower than 180%)
Cc1cn2nc(-c3nc4ccc(N5CCN(C(C)C)CC5)cc4c(=O)[nH]3)cc2c(C)n1 [Example 119, 2-(4,6-dimethylpyrazolo[1,5-a]pyrazin-2-yl)-6-(4-isopropylpiperazin-1-yl)quinazolin-4(3H)-one bistrifluoroacetate] | **** (equal to or higher than 180%)
Cc1cn2nc(-c3nc4ccc(N5CCN(CC6CC6)CC5)cc4c(=O)[nH]3)cc2c(C)n1 [Example 120, 6-[4-(cyclopropyImethyl)piperazin-1-yl]-2-(4,6-dimethylpyrazolo[1,5-a]pyrazin-2-yl)quinazolin-4(3H)-one bistrifluoroacetate] | **** (equal to or higher than 180%)
Cc1cn2nc(-c3nc4ccc(N5CCN6CCC[C@H]6C5)cc4c(=O)[nH]3)cc2c(C)n1 [Example 121, (S)-2-(4,6-dimethylpyrazolo[1,5-a]pyrazin-2-yl)-6-(hexahydropyrrolo[1,2-a]pyrazin-2(1H)-yl)quinazolin-4(3H)-one bistrifluoroacetate] | **** (equal to or higher than 180%)
Cc1cn2nc(-c3nc4ccc(N5CCNC(C)(C)C5)cc4c(=O)[nH]3)cc2c(C)n1 [Example 122, 6-(3,3-Dimethylpiperazin-1-yl)-2-(4,6-dimethylpyrazolo[1,5-a]pyrazin-2-yl)quinazolin-4(3H)-one bistrifluoroacetate] | **** (equal to or higher than 180%)
Cc1cn2nc(-c3nc4ccc(N5CCNC6(CC6)C5)cc4c(=O)[nH]3)cc2c(C)n1 [Example 123, 2-(4,6-dimethylpyrazolo[1,5-a]pyrazin-2-yl)-6-(4,7-diazaspiro[2.5Joctan-7-yl)quinazolin-4(3H)-one bistrifluoroacetate] | **** (equal to or higher than 180%)

Reference: patent US12012410B2, “Substituted pyrazolo[1,5-a]pyrazines for spinal muscular atrophy” (REBORNA BIOSCIENCES, INC., priority 2018, dated 2024)
